Reference: patent US12492232B2, “Methods for producing proteins” (South Australian Health and Medical Research Institute …, priority 2018, dated 2025)
“Also recorded” adds a separate entry of the source.

How the values were obtained:
[1] = tested on: mTORC1 and ER Stress activation markers; assay: Western blot for mTORC1 and ER stress activation markers in ExpiCHO cells stably expressing Rheb variants; format: cell-based
ExpiCHO-S™ cells = assay: Rabbit IgG secretion by ExpiCHO-S cells stably expressing Rheb variants (Easy-Titer Rabbit IgG Assay); format: cell-based; settings: single replicate; compared to Rheb-WT or Rheb-Y35N
Method: Materials and Methods: ExpiCHO-S™ cells were purchased from ThermoFischer Scientific and cultured in ExpiCHO™ Expression Medium at 37° C. at 8% CO2. […] Transfected cells were grown in 600 μg/mL […] for 6 weeks. Surviving cells were plated as single cells in a 96-well plate and monoclonal colonies selected for FLAG-Rheb expression.
Rabbit IgG secretion was determined using the ExpiCHO™ Expression system according to the manufacturer's instructions. Briefly, ExpiCHO™ cells expressing either endogenous Rheb or stably expressing exogenous Rheb were seeded at 6×10^6 cells/mL in 25 mL of ExpiCHO™ Expression Medium and transfected with 20 μg of a pcDNA3.1 vector encoding heavy and light chains of Rabbit IgG at a 1:2 ratio of heavy chain:light chain using ExpiFectamine™ CHO Reagent. 24 hours after transfection, cells were feed with ExpiCHO™ Feed and ExpiFectamine™ CHO Enhancer and transferred to 32° C., 5% CO2. Cells were allowed to grow for 10 days with 100 μL samples taken every day. After 10 days, Cells were pelleted by centrifugation at 4000×g for 30 minutes at 4° C. and the supernatant filtered through a […] PVFD filter and collected. IgG yield was determined using Easy-Titer™ Rabbit IgG Assay kit and calculated from a standard curve.

TSC1/TSC2 = assay: GAP assay: TSC1/TSC2-promoted hydrolysis of GTP bound to recombinant GST-Rheb; format: biochemical; settings: FLAG-TSC1, FLAG-TSC2, [α-32P]GTP, n=3
Excerpt: FIGS. 1A-1B: Recombinant GST-Rheb proteins were subjected to GAP assay in the presence of FLAG-TSC1, FLAG-TSC2 and [α-^32P] GTP. GST-Rheb bound to GDP or GTP was pulled down using glutathione beads and the nucleotides were then separated by thin-layer chromatography and visualized by phosphorimager. The positions of GDP and GTP are shown (FIG. 1A). […] FIGS. 1C-1D: CHO cells were co-transfected using Lipofectamine 3000 with vectors encoding wildtype (WT) Rheb or the indicated mutants and TSC1/2 as indicated. 36 h after transfection, cells were transferred to Ham's F12 media lacking FBS for 16 h. Cells were the transferred to Dulbecco's phosphate-buffered saline (D-PBS, which lacks amino acids) for 1 h before cell lysates were harvested for SDS-PAGE and Western Blotting analysis using the indicated antibodies. […] This effect is consistent with lack of sensitivity of the mutant Rhebs to TSC1/TSC2. Thus the Rheb mutants S21L, T23M, G29S, Y35N and E40K promote mTORC1 signalling in the absence of upstream activation due to insensitivity to the GAP activity of the TSC complex.
A) Recombinant GST-Rheb proteins were subjected to GTPase assays in the presence of FLAG-TSC1, FLAG-TSC2 and [α-^32P]GTP. Nucleotide-bound GST-Rheb was purified from the reaction mixture using 20 μl glutathione bead slurry. Radioactive GDP and GTP were separated by thin-layer chromatography and visualized by phosphorimager.

For “Rheb-T23M: human Rheb protein with a methionine variant at residue 23 (T23M), SEQ ID NO. 3”, the “ER stress response (Western blot markers)” value [1] was “mild ER stress response”, the “mTORC1 signalling (Western blot markers)” value [1] was “increased mTORC1 signalling” and the “rate of IgG secretion determined daily over 10 days” value (ExpiCHO-S™ cells) was “maintain a constant rate of IgG secretion over a longer period”. The “hydrolysis of GTP bound to Rheb promoted by TSC1/TSC2” value (TSC1/TSC2) was “completely unable to promote hydrolysis of GTP; also recorded: did not promote hydrolysis of GTP”.
